Common to all, as to conditions: 72 h
In experiment [1] the test system is Vero E6. As to the kind of experiment: drug sensitivity score (DSS) for viability; higher = more toxic; extreme values may be limits of the assay.
The test system of experiment [2] is HepG2. Described as above.
Experiment [3] deals with Caco-2. Described as above.
The test system of experiment [4] is U2OS. Described as above.
Experiment [5] concerns Vero E6. As to the kind of experiment: relative viability EC50 (midpoint between 100% and the lowest measured viability); higher = less toxic.
Experiment [6] concerns HepG2. The experiment is described as above.
Experiment [7] concerns Caco-2. The experiment is described as above.
The subject of experiment [8] is U2OS. The experiment is described as above.
The subject of experiment [9] is Vero E6. The experiment is described as follows: cell viability relative to DMSO; higher = less toxic.
The test system of experiment [10] is HepG2. Described as above.
The subject of experiment [11] is Caco-2. Described as above.
The subject of experiment [12] is U2OS. Described as above.
The test system of another experiment is Calu-3. The experiment is described as follows: drug sensitivity score (DSS) for viability; higher = more toxic; extreme values may be limits of the assay.

What is called cell viability is a read-out of living cells in per cent, often relative to untreated cells.

Where only a bound is given, the exact number is not on record here.

As for `Nc1nc(=O)c(Br)c(-c2ccccc2)[nH]1` [bropirimine], the drug sensitivity score in the experiment with Vero E6 [1], in the experiment on HepG2 [2], with Caco-2 [3] and with U2OS [4] was 0 throughout. Further, the “relative viability EC50” value in the experiment on Vero E6 [5], with HepG2 [6], in the experiment with Caco-2 [7] and in the experiment on U2OS [8] was more than 10 µM throughout. The cell viability with Vero E6 [9] (1 nM) worked out at 94.8%; in the experiment with Vero E6 [9] (10 nM) it was 98.3%; in the experiment on Vero E6 [9] (100 nM), 92.4%; in the experiment with Vero E6 [9] (1000 nM) it was 98.7%; in the experiment with Vero E6 [9] (10000 nM) it was 102%; with HepG2 [10] (1 nM) it was 102%. The cell viability was 118% in the experiment on HepG2 [10] (10 nM); 92.4% in the experiment with HepG2 [10] (100 nM); 103% with HepG2 [10] (1000 nM); 114% with HepG2 [10] (10000 nM); 96.6% in the experiment on Caco-2 [11] (1 nM); 91.4% with Caco-2 [11] (10 nM). Moreover, the cell viability is 102% with Caco-2 [11] (100 nM); 87.8% in the experiment with Caco-2 [11] (1000 nM); 112% in the experiment with Caco-2 [11] (10000 nM); 92.8% with U2OS [12] (1 nM); 95.1% in the experiment with U2OS [12] (10 nM); 102% in the experiment with U2OS [12] (100 nM). In addition, the cell viability in the experiment on U2OS [12] (1000 nM) was found to be 95.7%; in the experiment on U2OS [12] (10000 nM), 104%.
Take `CCN(CC)CCOC(=O)C1(c2ccccc2)CCCC1` [caramiphen]: the drug sensitivity score in the experiment on Vero E6 [1], with Calu-3, in the experiment on HepG2 [2] and in the experiment on U2OS [4] was 0 throughout.
`O=c1c(-c2ccc(O)cc2)coc2cc(O)ccc12` [daidzein]: the drug sensitivity score in the experiment on Vero E6 [1], in the experiment on Calu-3, with HepG2 [2] and in the experiment on U2OS [4] was 0 each time.
Consider `O=c1oc2ccccc2c(O)c1Cc1c(O)c2ccccc2oc1=O` [dicoumarol], for which the drug sensitivity score in the experiment on Vero E6 [1], with Calu-3 and with U2OS [4] was 0 throughout.
Turning to `CN[C@@H](C)[C@H](O)c1ccccc1` [ephedrine], the drug sensitivity score in the experiment on Vero E6 [1], in the experiment with HepG2 [2] and with U2OS [4] was 0 each time.
`COC(=O)[C@@H]1CC2=CC(=O)CC[C@]2(C)[C@@]23O[C@@H]2C[C@@]2(C)[C@@H](CC[C@@]24CCC(=O)O4)[C@H]13` [eplerenone]: the drug sensitivity score in the experiment with Vero E6 [1] and with Caco-2 [3] was 0 each time. The “relative viability EC50” value in the experiment on Vero E6 [5] and in the experiment on Caco-2 [7] was more than 10 µM each time. For the same compound, the cell viability with Vero E6 [9] (1 nM) was 99.7%; in the experiment on Vero E6 [9] (10 nM), 100%; in the experiment with Vero E6 [9] (100 nM), 99.1%; with Vero E6 [9] (1000 nM), 101%; with Vero E6 [9] (10000 nM), 95%; in the experiment with Caco-2 [11] (1 nM), 98.4%. In addition, the cell viability in the experiment on Caco-2 [11] (10 nM) is 101%; with Caco-2 [11] (100 nM) it was 85.8%; in the experiment with Caco-2 [11] (1000 nM), 92.8%; in the experiment with Caco-2 [11] (10000 nM) it was 98.4%.
For the compound `NP(N)(=O)NC(=O)c1ccc(F)cc1` [flurofamide], the drug sensitivity score in the experiment on Vero E6 [1], in the experiment on HepG2 [2], with Caco-2 [3] and in the experiment on U2OS [4] was 0 in each case. Besides, the “relative viability EC50” value in the experiment with Vero E6 [5], with HepG2 [6], with Caco-2 [7] and in the experiment with U2OS [8] was more than 10 µM each time. Besides, the cell viability in the experiment on Vero E6 [9] (1 nM) came out at 103%; in the experiment with Vero E6 [9] (10 nM) it was 102%; in the experiment with Vero E6 [9] (100 nM), 103%; in the experiment on Vero E6 [9] (1000 nM), 97.6%; with Vero E6 [9] (10000 nM) it was 102%; with HepG2 [10] (1 nM), 101%. Further, the cell viability came out at 98.6% in the experiment on HepG2 [10] (10 nM); 90.1% in the experiment on HepG2 [10] (100 nM); 95% in the experiment with HepG2 [10] (1000 nM); 103% with HepG2 [10] (10000 nM); 95.9% with Caco-2 [11] (1 nM); 96.4% with Caco-2 [11] (10 nM). For the same compound, the cell viability is 90.9% in the experiment on Caco-2 [11] (100 nM); 94.7% in the experiment with Caco-2 [11] (1000 nM); 91% with Caco-2 [11] (10000 nM); 100% in the experiment on U2OS [12] (1 nM); 102% in the experiment on U2OS [12] (10 nM); 97.3% with U2OS [12] (100 nM). For the same compound, the cell viability came out at 99.4% in the experiment on U2OS [12] (1000 nM) and 96% in the experiment on U2OS [12] (10000 nM).
Take `Oc1ccc(CC2NCCc3cc(O)c(O)cc32)cc1` (stereo unspecified) [higenamine]: the drug sensitivity score in the experiment on Vero E6 [1] came to 2.7; with HepG2 [2], 6.3; in the experiment on Caco-2 [3], 3.5; in the experiment with U2OS [4], 3.7. Moreover, the “relative viability EC50” value turned out to be 3.22 µM with Vero E6 [5], 1.56 µM with HepG2 [6] and 2.95 µM in the experiment with U2OS [8]. Moreover, the cell viability with Vero E6 [9] (1 nM) is 104%; in the experiment with Vero E6 [9] (10 nM), 99.2%; in the experiment on Vero E6 [9] (100 nM), 102%; in the experiment on Vero E6 [9] (1000 nM) it was 100%; in the experiment on Vero E6 [9] (10000 nM) it was 48.6%; with HepG2 [10] (1 nM), 105%. Also, the cell viability in the experiment with HepG2 [10] (10 nM) worked out at 97.1%; with HepG2 [10] (100 nM) it was 99.3%; in the experiment on HepG2 [10] (1000 nM) it was 83.3%; in the experiment with HepG2 [10] (10000 nM), 32.6%; in the experiment with Caco-2 [11] (1 nM), 97.6%; in the experiment with Caco-2 [11] (10 nM), 102%. Also, the cell viability in the experiment with Caco-2 [11] (100 nM) came to 94.9%; with Caco-2 [11] (1000 nM) it was 86.2%; with Caco-2 [11] (10000 nM), 59.4%; in the experiment with U2OS [12] (1 nM), 98.1%; with U2OS [12] (10 nM) it was 103%; with U2OS [12] (100 nM), 97.5%. For the same compound, the cell viability in the experiment with U2OS [12] (1000 nM) was 98.1%; in the experiment with U2OS [12] (10000 nM), 36.6%.

For the origin of these results see the supplement of paper PMC13380429.
